tested on: Mycosphaerella arachidis (Cercospora arachidicola); test: Fungicidal activity against Mycosphaerella arachidis (Cercospora arachidicola) / liquid culture (early leaf spot); format: cell-based; conditions: liquid culture (PDB), inhibition of growth determined photometrically 4-5 days after application, read-out: disease control
Procedure: (§1) Fungicidal Activity Against Mycosphaerella arachidis (Cercospora arachidicola)/Liquid Culture (Early Leaf Spot) Conidia of the fungus from cryogenic storage were directly mixed into nutrient broth (PDB potato dextrose broth). After placing a (DMSO) solution of test compound into a microtiter plate (96-well format), the nutrient broth containing the fungal spores was added. The test plates were incubated at 24° C. and the inhibition of growth was determined photometrically 4-5 days after application.

Row | SMILES | inhibition of growth at 200 ppm [%]
1 | COc1nc(-c2cccc(C#CC3CC3)n2)nc2sccc12 [Compound T15.9] | ≥ 80
2 | Cc1cccc(-c2nc(-c3ccccc3C)c3ccsc3n2)n1 [Compound T15.13] | ≥ 80
3 | CCOc1nc(-c2cccc(Cc3ccccc3)n2)nc2sccc12 [Compound T15.1] | ≥ 80
4 | Cc1cccc(-c2nc(-c3ccccc3Cl)c3ccsc3n2)n1 [Compound T15.14] | ≥ 80
5 | Clc1nc(-c2cccc(Cc3ccccc3)n2)nc2sccc12 [Compound T3.1.33, 2-(6-benzyl-pyridin-2-yl)-4-chloro-thieno[2,3-d]pyrimidine] | ≥ 80
6 | Cc1ccc(-c2ncc3cccnc3n2)nc1-c1ccccc1 [Compound T10.1.6, 2-(5-methyl-6-phenyl-pyridin-2-yl)-pyrido[2,3-d]pyrimidine] | ≥ 80

tested on: Pyrenophora teres; test: Fungicidal activity against Pyrenophora teres / barley / leaf disc preventative (net blotch); format: in vivo; conditions: foliar, barley leaf segments cv. Hasso, inoculated 2 days after application, assessed 5-7 days after application, vs untreated, read-out: disease control
Procedure: Fungicidal Activity Against Pyrenophora teres/Barley/Leaf Disc Preventative (Net Blotch) Barley leaf segments cv. Hasso were placed on agar in a multiwell plate (24-well format) and sprayed with the formulated test compound diluted in water. The leaf […] inoculated with a spore suspension of the fungus 2 days after application. The inoculated leaf segments were incubated at 20° C. and 65% rh under a light regime of 12 h light/12 h darkness in a climate cabinet and the activity of a compound was assessed as disease control compared to untreated when an appropriate level of disease damage appears in untreated check leaf segments (5-7 days after application).

Row | SMILES | pest or weed control at 200 ppm [%]
7 | Cc1cccc(-c2nc(-c3ccccc3Cl)c3ccsc3n2)n1 [Compound T15.14] | ≥ 80
8 | Cc1ccc(-c2ncc3cccnc3n2)nc1-c1ccccc1 [Compound T10.1.6, 2-(5-methyl-6-phenyl-pyridin-2-yl)-pyrido[2,3-d]pyrimidine] | ≥ 80

tested on: Phytophthora infestans; test: not given; format: in vivo; conditions: 200 ppm; tomato leaf disks, inoculated 1 day after application, assessed 5-7 days after application, vs untreated

Row | SMILES | disease control
9 | c1ccc(Cc2cccc(-c3ncc4ccsc4n3)n2)cc1 [Compound T3.1.31, 2-(6-benzyl-pyridin-2-yl)-thieno[2,3-d]pyrimidine] | at least 80%

tested on: Phaeosphaeria nodorum (Septoria nodorum); test: Fungicidal activity against Phaeosphaeria nodorum (Septoria nodorum) / wheat / leaf disc preventative (glume blotch); format: in vivo; conditions: Parastagonospora nodorum, foliar, wheat leaf segments cv. Kanzler, inoculated 2 days after application, assessed 5-7 days after application, vs untreated, read-out: disease control
Procedure: Fungicidal Activity Against Phaeosphaeria nodorum (Septoria nodorum)/Wheat/Leaf Disc Preventative (Glume Blotch) Wheat leaf segments cv. Kanzler were placed on agar in a multiwell plate (24-well format) and sprayed with the formulated test compound diluted in water. The leaf disks were inoculated with a spore suspension of the fungus 2 days after application. The inoculated test leaf disks were incubated at 20° C. and 75% rh under a light regime of 12 h light/12 h darkness in a climate cabinet and the activity of a compound was assessed as percent disease control compared to untreated when an appropriate level of disease damage appears in untreated check leaf disks (5-7 days after application).

Row | SMILES | pest or weed control at 200 ppm [%]
10 | Cc1cccc(-c2nc(-c3ccccc3C)c3ccsc3n2)n1 [Compound T15.13] | ≥ 80
11 | Cc1cccc(-c2nc(-c3ccccc3Cl)c3ccsc3n2)n1 [Compound T15.14] | ≥ 80
12 | Clc1nc(-c2cccc(Cc3ccccc3)n2)nc2sccc12 [Compound T3.1.33, 2-(6-benzyl-pyridin-2-yl)-4-chloro-thieno[2,3-d]pyrimidine] | ≥ 80
13 | Cc1ccc(-c2ncc3cccnc3n2)nc1-c1ccccc1 [Compound T10.1.6, 2-(5-methyl-6-phenyl-pyridin-2-yl)-pyrido[2,3-d]pyrimidine] | ≥ 80

tested on: Mycosphaerella graminicola (Septoria tritici); test: Fungicidal activity against Mycosphaerella graminicola (Septoria tritici) / liquid culture (Septoria blotch); format: cell-based; conditions: Zymoseptoria tritici, liquid culture (PDB), inhibition of growth determined photometrically 4-5 days after application, read-out: disease control
Procedure: as §1, with “graminicola (Septoria tritici)/Liquid” for “arachidis (Cercospora arachidicola)/Liquid”, “(Septoria Blotch)” for “(Early Leaf Spot)”

Row | SMILES | inhibition of growth at 200 ppm [%]
14 | Cc1cccc(-c2nc(-c3ccccc3C)c3ccsc3n2)n1 [Compound T15.13] | ≥ 80
15 | CCOc1nc(-c2cccc(Cc3ccccc3)n2)nc2sccc12 [Compound T15.1] | ≥ 80
16 | Cc1cccc(-c2nc(-c3ccccc3Cl)c3ccsc3n2)n1 [Compound T15.14] | ≥ 80
17 | Clc1nc(-c2cccc(Cc3ccccc3)n2)nc2sccc12 [Compound T3.1.33, 2-(6-benzyl-pyridin-2-yl)-4-chloro-thieno[2,3-d]pyrimidine] | ≥ 80
18 | Cc1ccc(-c2ncc3cccnc3n2)nc1-c1ccccc1 [Compound T10.1.6, 2-(5-methyl-6-phenyl-pyridin-2-yl)-pyrido[2,3-d]pyrimidine] | ≥ 80

tested on: Puccinia recondita f. sp. tritici; test: Fungicidal activity against Puccinia recondita f. sp. tritici / wheat / leaf disc preventative (brown rust); format: in vivo; conditions: foliar, wheat leaf segments cv. Kanzler, inoculated 1 day after application, assessed 7-9 days after application, vs untreated, read-out: disease control
Procedure: Fungicidal Activity Against Puccinia recondita f. sp. tritici/Wheat/Leaf Disc Preventative (Brown Rust) Wheat leaf segments cv. Kanzler were placed on agar in multiwell plates (24-well format) and sprayed with the formulated test compound diluted in water. The leaf disks were inoculated with a spore suspension of the fungus 1 day after application. The inoculated leaf segments were incubated at 19° C. and 75% rh under a light regime of 12 h light/12 h darkness in a climate cabinet and the activity of a compound was assessed as percent disease control compared to untreated when an appropriate level of disease damage appears in untreated check leaf segments (7-9 days after application).

Row | SMILES | pest or weed control at 200 ppm [%]
19 | CCOc1nc(-c2cccc(Cc3ccccc3)n2)nc2sccc12 [Compound T15.1] | ≥ 80
20 | Clc1nc(-c2cccc(Cc3ccccc3)n2)nc2sccc12 [Compound T3.1.33, 2-(6-benzyl-pyridin-2-yl)-4-chloro-thieno[2,3-d]pyrimidine] | ≥ 80
21 | Cc1ccc(-c2ncc3cccnc3n2)nc1-c1ccccc1 [Compound T10.1.6, 2-(5-methyl-6-phenyl-pyridin-2-yl)-pyrido[2,3-d]pyrimidine] | ≥ 80

tested on: Glomerella lagenarium (Colletotrichum lagenarium); test: Fungicidal activity against Glomerella lagenarium (Colletotrichum lagenarium) / liquid culture (anthracnose); format: cell-based; conditions: Colletotrichum orbiculare, liquid culture (PDB), inhibition of growth measured photometrically 3-4 days after application, read-out: disease control
Procedure: as §1, with “Glomerella lagenarium (Colletotrichum lagenarium)/Liquid” for “Mycosphaerella arachidis (Cercospora arachidicola)/Liquid”, “(Anthracnose)” for “(Early Leaf Spot)”, “measured” for “determined”, “3-4” for “4-5”

Row | SMILES | inhibition of growth at 200 ppm [%]
22 | Cc1cccc(-c2nc(-c3ccccc3C)c3ccsc3n2)n1 [Compound T15.13] | ≥ 80
23 | CCOc1nc(-c2cccc(Cc3ccccc3)n2)nc2sccc12 [Compound T15.1] | ≥ 80
24 | Cc1cccc(-c2nc(-c3ccccc3Cl)c3ccsc3n2)n1 [Compound T15.14] | ≥ 80
25 | Clc1nc(-c2cccc(Cc3ccccc3)n2)nc2sccc12 [Compound T3.1.33, 2-(6-benzyl-pyridin-2-yl)-4-chloro-thieno[2,3-d]pyrimidine] | ≥ 80
26 | Cc1ccc(-c2ncc3cccnc3n2)nc1-c1ccccc1 [Compound T10.1.6, 2-(5-methyl-6-phenyl-pyridin-2-yl)-pyrido[2,3-d]pyrimidine] | ≥ 80

tested on: Botryotinia fuckeliana (Botrytis cinerea); test: Fungicidal activity against Botryotinia fuckeliana (Botrytis cinerea) / liquid culture (gray mould); format: cell-based; conditions: liquid culture (Vogels broth), inhibition of growth determined photometrically 3-4 days after application, read-out: disease control
Procedure: as §1, with “Botryotinia fuckeliana (Botrytis cinerea)/Liquid” for “Mycosphaerella arachidis (Cercospora arachidicola)/Liquid”, “(Gray Mould)” for “(Early Leaf Spot)”, “(Vogels” for “(PDB potato dextrose”, “3-4” for “4-5”

Row | SMILES | inhibition of growth at 200 ppm [%]
27 | Cc1cc(F)ccc1-c1cccc(-c2nc(O)c3ccsc3n2)n1 [Compound T15.5] | ≥ 80
28 | Cc1cccc(-c2nc(-c3ccccc3C)c3ccsc3n2)n1 [Compound T15.13] | ≥ 80
29 | Cc1cccc(-c2nc(-c3ccccc3Cl)c3ccsc3n2)n1 [Compound T15.14] | ≥ 80
30 | Cc1ccc(-c2ncc3cccnc3n2)nc1-c1ccccc1 [Compound T10.1.6, 2-(5-methyl-6-phenyl-pyridin-2-yl)-pyrido[2,3-d]pyrimidine] | ≥ 80

tested on: Gaeumannomyces graminis; test: Fungicidal activity against Gaeumannomyces graminis / liquid culture (take-all of cereals); format: cell-based; conditions: liquid culture (PDB), inhibition of growth determined photometrically 4-5 days after application, read-out: disease control
Procedure: as §1, with “Against Gaeumannomyces graminis/Liquid” for “Against Mycosphaerella arachidis (Cercospora arachidicola)/Liquid”, “Culture (Take-all of Cereals) Mycelial fragments” for “Culture (Early Leaf Spot) Conidia”, “spores is” for “spores was”

Row | SMILES | inhibition of growth at 200 ppm [%]
31 | Cc1cc(F)ccc1-c1cccc(-c2nc(O)c3ccsc3n2)n1 [Compound T15.5] | ≥ 80
32 | Cc1ccc(C)c(-c2cccc(-c3nc(O)c4ccsc4n3)n2)c1 [Compound T15.7] | ≥ 80
33 | COc1nc(-c2cccc(C#CC3CC3)n2)nc2sccc12 [Compound T15.9] | ≥ 80
34 | Cc1cccc(-c2nc(-c3ccccc3C)c3ccsc3n2)n1 [Compound T15.13] | ≥ 80
35 | CCOc1nc(-c2cccc(Cc3ccccc3)n2)nc2sccc12 [Compound T15.1] | ≥ 80
36 | Cc1cccc(-c2nc(-c3ccccc3Cl)c3ccsc3n2)n1 [Compound T15.14] | ≥ 80
37 | Clc1nc(-c2cccc(Cc3ccccc3)n2)nc2sccc12 [Compound T3.1.33, 2-(6-benzyl-pyridin-2-yl)-4-chloro-thieno[2,3-d]pyrimidine] | ≥ 80
38 | Cc1ccc(-c2ncc3cccnc3n2)nc1-c1ccccc1 [Compound T10.1.6, 2-(5-methyl-6-phenyl-pyridin-2-yl)-pyrido[2,3-d]pyrimidine] | ≥ 80

tested on: Monographella nivalis (Microdochium nivale); test: Fungicidal activity against Monographella nivalis (Microdochium nivale) / liquid culture (foot rot cereals); format: cell-based; conditions: liquid culture (PDB), inhibition of growth determined photometrically 4-5 days after application, read-out: disease control
Procedure: as §1, with “Monographella nivalis (Microdochium nivale)/Liquid” for “Mycosphaerella arachidis (Cercospora arachidicola)/Liquid”, “(Foot Rot Cereals)” for “(Early Leaf Spot)”

Row | SMILES | inhibition of growth at 200 ppm [%]
39 | Cc1ccc(C)c(-c2cccc(-c3nc(O)c4ccsc4n3)n2)c1 [Compound T15.7] | ≥ 80
40 | COc1nc(-c2cccc(C#CC3CC3)n2)nc2sccc12 [Compound T15.9] | ≥ 80
41 | CCOc1nc(-c2cccc(Cc3ccccc3)n2)nc2sccc12 [Compound T15.1] | ≥ 80
42 | Clc1nc(-c2cccc(Cc3ccccc3)n2)nc2sccc12 [Compound T3.1.33, 2-(6-benzyl-pyridin-2-yl)-4-chloro-thieno[2,3-d]pyrimidine] | ≥ 80
43 | Cc1ccc(-c2ncc3cccnc3n2)nc1-c1ccccc1 [Compound T10.1.6, 2-(5-methyl-6-phenyl-pyridin-2-yl)-pyrido[2,3-d]pyrimidine] | ≥ 80

— patent publication US20120316184A1, “NOVEL MICROBICIDES” (SYNGENTA CROP PROTECTION LLC, priority 2010, published 2012)
